Experiment [1] concerns the target Serotonin 2 (5-HT2) receptor (Homo sapiens) (UniProt P41595+P28223+P28335).
Description: 5-hydroxytryptamine 2 receptor binding affinity
The nature of experiment [2]: (§1) Compound was tested for functional dopamine antagonism in normalization assay (i.e. AS: reversal of apomorphine induced swimming ED50s in mg/kg orally). Particulars: po.
Experiment [3] has as its target D(2) dopamine receptor (Homo sapiens) (UniProt P14416). As to the kind of experiment: Dopamine D2 (spiroperidol) receptor binding affinity.
Experiment [4] concerns the target D(1A) dopamine receptor (Homo sapiens) (UniProt P21728).
Description: Dopamine D1 (SCH-23390) receptor binding affinity
The subject of another experiment is Rattus norvegicus. The description is as §1. To be noted: po.
Experiment [5] addresses D(2) dopamine receptor (Homo sapiens) (UniProt P14416). As to the kind of experiment: Compound was tested for dopamine D2 (spiroperidol) receptor binding affinity at 2500 nM concentration.
Experiment [6] has as its target D(1A) dopamine receptor (Homo sapiens) (UniProt P21728). As to the kind of experiment: Compound was tested for dopamine D1 (SCH-23390) receptor binding affinity, at 2500 nM concentration.
Experiment [7] has the same target. Briefly: Compound was tested for dopamine D1 (SCH-23390) receptor binding affinity, at 1000 nM concentration.
Experiment [8] has the same target. Briefly: Compound was tested for dopamine D1 (SCH-23390) receptor binding affinity; Not active.
The target of experiment [9] is D(2) dopamine receptor (Homo sapiens) (UniProt P14416). As to the kind of experiment: Compound was tested for dopamine D2 (spiroperidol) receptor binding affinity; Not active.
Experiment [10] shares this target. Briefly: Compound was tested for dopamine D2 (spiroperidol) receptor binding affinity, at 5000 nM concentration.

Usually ED50 stands for the midpoint of the dose-response relation. In general, inhibition refers to how much of the control response was suppressed. A higher inhibition goes with strong suppression.

Molecules are shown by their SMILES. Calls of active or inactive are those of the source. The rule behind the calls is not given here.

Chain of D(1A) dopamine receptor (Homo sapiens) (P21728 whole entry): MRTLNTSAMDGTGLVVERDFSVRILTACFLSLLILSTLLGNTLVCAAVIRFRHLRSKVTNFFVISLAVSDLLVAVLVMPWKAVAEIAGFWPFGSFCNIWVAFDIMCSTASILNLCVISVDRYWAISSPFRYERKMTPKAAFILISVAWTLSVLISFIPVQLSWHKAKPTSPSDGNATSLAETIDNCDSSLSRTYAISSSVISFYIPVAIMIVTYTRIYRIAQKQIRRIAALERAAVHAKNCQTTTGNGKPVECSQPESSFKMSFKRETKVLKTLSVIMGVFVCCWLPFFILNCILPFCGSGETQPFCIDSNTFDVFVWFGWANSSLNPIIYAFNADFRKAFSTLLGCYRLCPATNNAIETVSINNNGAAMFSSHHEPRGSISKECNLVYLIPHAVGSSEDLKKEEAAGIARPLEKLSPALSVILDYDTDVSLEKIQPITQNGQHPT
Chain of Serotonin 2 (5-HT2) receptor (Homo sapiens) (P28223 whole entry, looked up): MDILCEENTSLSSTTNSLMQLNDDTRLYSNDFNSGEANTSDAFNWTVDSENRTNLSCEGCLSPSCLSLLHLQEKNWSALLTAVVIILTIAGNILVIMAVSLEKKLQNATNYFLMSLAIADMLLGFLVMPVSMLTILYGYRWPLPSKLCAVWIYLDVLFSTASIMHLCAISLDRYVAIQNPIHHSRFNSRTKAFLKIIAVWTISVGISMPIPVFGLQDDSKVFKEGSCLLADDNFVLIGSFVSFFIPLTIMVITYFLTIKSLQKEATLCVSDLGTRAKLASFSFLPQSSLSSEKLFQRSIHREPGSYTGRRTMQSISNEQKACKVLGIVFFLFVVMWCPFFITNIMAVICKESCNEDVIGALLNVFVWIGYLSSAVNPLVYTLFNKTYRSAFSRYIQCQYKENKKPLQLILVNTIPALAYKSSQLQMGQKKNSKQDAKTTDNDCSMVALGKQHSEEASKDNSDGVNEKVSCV
Chain of Serotonin 2 (5-HT2) receptor (Homo sapiens) (P28335 whole entry, looked up): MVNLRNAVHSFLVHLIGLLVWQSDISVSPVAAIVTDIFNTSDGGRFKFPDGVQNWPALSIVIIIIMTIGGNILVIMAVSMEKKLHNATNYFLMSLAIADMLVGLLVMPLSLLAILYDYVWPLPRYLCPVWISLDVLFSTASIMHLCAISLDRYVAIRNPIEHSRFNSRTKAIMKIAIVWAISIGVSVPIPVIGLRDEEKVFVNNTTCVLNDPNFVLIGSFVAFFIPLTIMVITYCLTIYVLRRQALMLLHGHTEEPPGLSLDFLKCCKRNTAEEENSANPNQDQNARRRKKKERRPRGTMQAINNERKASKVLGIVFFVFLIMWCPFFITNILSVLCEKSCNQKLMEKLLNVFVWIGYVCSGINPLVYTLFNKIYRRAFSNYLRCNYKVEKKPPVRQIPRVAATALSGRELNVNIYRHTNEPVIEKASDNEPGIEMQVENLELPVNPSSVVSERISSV
Chain of Serotonin 2 (5-HT2) receptor (Homo sapiens) (P41595 whole entry, looked up): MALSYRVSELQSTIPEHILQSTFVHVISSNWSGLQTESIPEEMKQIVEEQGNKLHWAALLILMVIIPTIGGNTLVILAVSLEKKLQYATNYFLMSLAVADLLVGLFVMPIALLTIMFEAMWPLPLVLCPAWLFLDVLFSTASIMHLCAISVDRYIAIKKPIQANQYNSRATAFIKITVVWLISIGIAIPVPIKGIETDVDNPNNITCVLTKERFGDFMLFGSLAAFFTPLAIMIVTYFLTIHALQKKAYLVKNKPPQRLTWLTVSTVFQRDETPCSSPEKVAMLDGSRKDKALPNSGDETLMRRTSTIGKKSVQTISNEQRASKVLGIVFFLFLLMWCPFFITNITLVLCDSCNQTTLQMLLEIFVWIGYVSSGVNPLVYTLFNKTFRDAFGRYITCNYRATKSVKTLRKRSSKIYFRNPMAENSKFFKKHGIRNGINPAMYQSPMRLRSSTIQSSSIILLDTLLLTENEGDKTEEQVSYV
Chain of D(2) dopamine receptor (Homo sapiens) (P14416 whole entry): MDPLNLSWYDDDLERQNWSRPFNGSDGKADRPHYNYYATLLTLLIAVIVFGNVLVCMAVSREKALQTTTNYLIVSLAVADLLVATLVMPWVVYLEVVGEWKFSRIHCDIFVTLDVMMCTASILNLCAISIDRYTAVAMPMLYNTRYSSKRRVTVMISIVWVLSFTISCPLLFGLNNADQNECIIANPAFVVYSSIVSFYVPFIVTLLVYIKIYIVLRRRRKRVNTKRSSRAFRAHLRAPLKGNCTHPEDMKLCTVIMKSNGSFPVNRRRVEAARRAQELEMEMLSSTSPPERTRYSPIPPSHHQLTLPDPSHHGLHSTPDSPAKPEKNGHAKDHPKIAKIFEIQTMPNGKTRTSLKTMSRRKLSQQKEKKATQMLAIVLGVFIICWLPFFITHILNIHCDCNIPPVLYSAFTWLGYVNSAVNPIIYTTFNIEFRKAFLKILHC

For the molecule `C[C@@H]1CN(CCCNCC23CC(c4ccccc42)c2ccccc23)C[C@@H](C)O1`, the Binding affinity came out at 11 nM in [1], 36 nM in experiment [3] and 60 nM in experiment [4]. The ED50 in [2] was greater than 80 mg/kg.
In the case of `Clc1ccc2c(c1)C1(CN3CCC(Nc4ncccn4)CC3)CC2c2ccccc21` (centres undefined), the Binding affinity amounted to 2 nM in experiment [1], 49 nM in experiment [3] and 351 nM in [4]. Moreover, the ED50 in [2] worked out at 5 mg/kg.
In the same order, the values of `O[C@@H](c1cccnc1)C1CCN(CC23CC(c4ccccc42)c2ccc(Cl)cc23)CC1` (some centres undefined) are 4 nM, 14 nM, 63 nM and 5 mg/kg.
Take `c1ccc2c(c1)C1CC2(CNCCCN2CCOCC2)c2ccccc21`: the Binding affinity is 21 nM in experiment [1], 222 nM in experiment [3] and 349 nM in experiment [4]. Further, in [2], the ED50 is greater than 80 mg/kg.
`CCOC(OCC)C(=O)NC1CCN(CC23CC(c4ccccc42)c2ccc(Cl)cc23)CC1` (centres undefined): the Binding affinity turned out to be 40 nM in [1], 25 nM in experiment [3] and 76 nM in [4]. In addition, in experiment [2], the ED50 turned out to be 2.5 mg/kg.
In the same order, the values of `CC[S+]([O-])c1ncccc1C1(O)CCN(CC23CC(c4ccccc42)c2ccccc23)CC1` (centres undefined) are 39 nM, 42 nM, 13 nM and 0.6 mg/kg.
In the case of `CN1CCN(C2=Nc3cc(Cl)ccc3Nc3ccccc32)CC1` [CLOZAPINE], the ED50 with Rattus norvegicus came out at 40 mg/kg.
Consider `c1cnc(NCCCNCC23CC(c4ccccc42)c2ccccc23)nc1`, for which the Binding affinity in experiment [1] amounted to 227 nM; in [3], 265 nM; in [4], 132 nM. For the same molecule, the ED50 in experiment [2] was greater than 80 mg/kg.
For `CN1CCN(CC23CC(c4ccccc42)c2ccccc23)CC1`, the inhibition in experiment [5] is 18%; in experiment [6], 14%. For the same molecule, the Binding affinity in [1] amounted to 314 nM. The ED50 in experiment [2] is greater than 80 mg/kg.
Regarding `c1ccc(Cn2cncc2CCNCC23CC(c4ccccc42)c2ccccc23)cc1`, the values for the Binding affinity in [1], in experiment [3] and in experiment [4] were 84 nM, 101 nM and 610 nM, respectively. Moreover, the ED50 in experiment [2] is 80 mg/kg.
Take `c1ccc2c(c1)C1CC2(CN2CCC(N3CCOCC3)CC2)c2ccccc21`: in experiment [2], the ED50 came out at 10 mg/kg. This molecule also returned a Binding affinity in experiment [3] of 57 nM. For the same molecule, the inhibition in [7] was found to be 17%.
For the molecule `NCC12CC(c3ccccc31)c1ccccc12`, the Binding affinity entry in [8] and in experiment [9] was “inactive” in each case. Also, the ED50 in experiment [2] was greater than 80 mg/kg.
On to `CC(C)(C)C1(O)CCN(CC23CC(c4ccccc42)c2ccc(Cl)cc23)CC1` (centres undefined), for which the Binding affinity worked out at 1 nM in [1], 5 nM in experiment [3] and 7 nM in experiment [4]. Also, the ED50 in experiment [2] was 0.6 mg/kg.
Turning to `CN1CCN(C(=O)C23CC(c4ccccc42)c2ccccc23)CC1`, in [2], the ED50 is greater than 80 mg/kg. The inhibition in experiment [10] worked out at 0%.

Source of the values: ChEMBL document CHEMBL1128790, “Putative atypical antipsychotics with mixed dopaminergic (D1, D2) and serotonergic (5HT2) activity: The design evolution of ZD3638” (1995).
